Measurements published in patent US11896678B2, “Compositions and methods for treatment of peroxisome proliferator-activated receptor gamma (PPARG) activated cancer” (THE BROAD INSTITUTE, INC., priority 2017, dated 2024).

Tests used:
[1] = target: T1, PPARG ligand-binding domain - NCoR/NCOR1 corepressor peptide (Homo sapiens, UniProt P37231); test: TR-FRET corepressor assay, NCoR/NCOR1 peptide; assay type: biochemical; conditions: data not shown
T1 construct: purchased ThermoFisher Scientific
T1 sequence (P37231 238-503 limits assumed): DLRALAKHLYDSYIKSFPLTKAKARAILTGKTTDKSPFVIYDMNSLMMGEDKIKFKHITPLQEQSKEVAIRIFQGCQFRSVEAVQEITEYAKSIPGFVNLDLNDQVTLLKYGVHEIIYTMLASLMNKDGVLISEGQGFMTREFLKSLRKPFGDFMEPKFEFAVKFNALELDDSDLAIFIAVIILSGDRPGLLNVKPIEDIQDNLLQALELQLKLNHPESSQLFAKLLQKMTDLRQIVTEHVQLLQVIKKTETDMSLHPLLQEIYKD
Procedure: To evaluate inverse-agonism, a TR-FRET PPARG co-repressor assay (ThermoFisher) that measures recruitment of a fluorescent NCOR1 or NCOR2 corepressor peptide to the PPARG ligand-binding domain was used (ThermoFisher).
In addition to the PPARG-NCOR2 interaction assay described above, interactions between PPARG and a peptide from the corepressor NCOR1 were measured.

PPARG = target: T2, PPARG (Homo sapiens, UniProt P37231); test: RT112/84 FABP4-NLucP reporter gene assay, unstimulated; assay type: cell-based
T2 construct: endogenous in cells; host or cells: RT112/84 bladder cancer cells (FABP4-NLucP knock-in clone)
T2 sequence (P37231 1-477 isoform P37231-2): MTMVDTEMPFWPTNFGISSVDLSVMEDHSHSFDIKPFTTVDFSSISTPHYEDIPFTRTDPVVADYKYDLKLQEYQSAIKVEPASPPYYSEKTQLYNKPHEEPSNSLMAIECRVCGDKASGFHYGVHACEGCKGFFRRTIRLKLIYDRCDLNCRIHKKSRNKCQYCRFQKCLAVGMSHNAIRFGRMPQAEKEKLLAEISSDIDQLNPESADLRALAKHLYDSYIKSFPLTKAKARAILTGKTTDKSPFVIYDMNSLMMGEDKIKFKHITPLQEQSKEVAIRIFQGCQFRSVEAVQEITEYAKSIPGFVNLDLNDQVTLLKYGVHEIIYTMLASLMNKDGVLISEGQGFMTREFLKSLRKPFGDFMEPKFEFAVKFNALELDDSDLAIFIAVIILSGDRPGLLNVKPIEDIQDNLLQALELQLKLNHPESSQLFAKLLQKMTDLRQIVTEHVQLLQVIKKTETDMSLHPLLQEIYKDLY
Excerpt: Next, a PPARG reporter cell line was engineered to enable higher throughput assays to evaluate PPARG transactivation. Briefly, a destabilized NanoLuc luciferase reporter gene was inserted into the 3′-UTR of the FABP4 gene in the RT112/84 bladder cancer cell line using CRISPR/Cas9 mediated homology-directed repair (FIG. 4A).
RT112-FABP4-NLucP Reporter Gene Assay: Reporter cell line was generated by engineering NanoLuc gene into the 3′ UTR of FABP4 in RT112/84 cells using CRISPR/Cas9 guided genome engineering. Single cell clones were generated and the clone with the widest dynamic range selected for use. Assays were performed by seeding 384-well plates with ˜10,000 cells per well in MEMalpha containing 10% FBS and dosing compounds at indicated concentration using HP D300 digital dispenser (HP/Tecan). 18-24 hours after dosing with compound, cells were assayed using NanoGlo Luciferase Assay Reagent (Promega Madison, WI) and plates were read using EnVision Multilabel Reader (PerkinElmer Waltham, MA).

[2] = system: PPARG-activated bladder cancer cell lines; test: Proliferation assays in PPARG-activated bladder cancer cell lines; assay type: cell-based, human; conditions: 100 nM-500 nM
Procedure: A panel of bladder cancer cell lines with PPARG modulators in colony formation assays was then tested (FIG. 10), kinetic proliferation assays (IncuCyte Zoom; Essen Bioscience) using cell lines treated with a single concentration of compound (100 nM-500 nM), and end-point dose-response assays (CellTiter Glo or CyQuant).
This assay was expanded to include an additional 8 representative bladder cancer cell lines, including cell lines with PPARG amplification, RXRA p.S427F mutation, activated gene signature, and control cell lines with low level expression of PPARG and target genes. […] Representative data for the UM-UC-9 cell line are shown in FIG. 6B, and is tabulated for the tested bladder cancer cell lines in Table 1. […] This significant (P<0.01) preferential sensitivity to PPARG inverse-agonists, but not antagonists, is maintained across all of the PPARG-activated cell lines in the panel, including the RXRA p.S427F cell line, HT-1197 (41), the PPARG-amplified cell lines, 5637 and UM-UC-9, and the PPARG activation gene signature cell lines Cal29, UM-UC-1, and RT112/84 (FIG. 12). […] Similar results were obtained with these cell lines in parallel studies using clonogenic assays to quantify colony-forming ability (FIG. 10).
(§1) Proliferation Assays: To enable cell-counting experiments, cell lines were transduced with a lentiviral vector encoding nuclear-targeted GFP, TagGFP2-H2B (Evrogen), and stable pools generated following selection for puromycin resistance. Cell lines were maintained for at least 7 days following selection prior to expansion and seeding into 96- or 384-well plates for further analysis. For kinetic proliferation assays, 96-well plates (n 1% 4 per condition) were imaged and counted every two hours using IncuCyte Zoom (Essen BioScience). Media and compounds were replaced approximately every 3-4 days. For endpoint assays to measure dose-response, cells were plated in 384-well plates, dosed with compound, and upon reaching approximately 70% to 90% confluence in control wells, cells were either counted using fluorescence imaging (Incu-Cyte Zoom) or incubated with CyQuant (Thermo Fisher) at the indicated time and plates were read with a fluorescent plate reader.

UM-UC-9 cells [3] = test: Kinetic proliferation assay (IncuCyte), percent of DMSO control; assay type: cell-based, human; conditions: 100 nmol/L; DMSO control at 50% confluency
Excerpt: This assay was expanded to include an additional 8 representative bladder cancer cell lines, including cell lines with PPARG amplification, RXRA p.S427F mutation, activated gene signature, and control cell lines with low level expression of PPARG and target genes. […] Representative data for the UM-UC-9 cell line are shown in FIG. 6B, and is tabulated for the tested bladder cancer cell lines in Table 1. […] Similar results were obtained with these cell lines in parallel studies using clonogenic assays to quantify colony-forming ability (FIG. 10).
as §1, with “Cell lines were maintained for at least 7 days following selection prior to expansion and seeding into 96- or 384-well plates for further analysis.” left out, “Media and compounds were replaced approximately every 3-4 days.” left out

UM-UC-9 cells [4] = test: Direct cell counting dose-response proliferation assay; assay type: cell-based, human
Procedure: To determine whether PPARG modulators affect the proliferation and/or viability of PPARG-activated bladder cancer cell lines, a direct cell counting-based assay was performed. This assay likely avoids potential artifacts associated with the use of an ATP content-based assay, given that PPAR modulators are known to regulate cellular metabolic activity. […] These IC50 values align well with the calculated IC50s from both the cell-based reporter gene assay (FIG. 8A) and the biochemical corepressor assay (FIG. 8D).
as §1

O=C(Nc1ccccc1)c1cc([N+](=O)[O-])ccc1Cl [GW9662]
induced signal [1]: 2.5 fold | effect on unstimulated reporter (PPARG): minimal detectable effect | sensitivity of cell lines [2]: not sensitive | effect on proliferation relative to control (UM-UC-9 cells [3]): no effect | effect on cell proliferation compared with DMSO control (UM-UC-9 cells [4]): no significant effects
